Consider one molecule from patent US8183230B2, “Antimicrobial preservatives to achieve multi-dose formulation using beta-cyclodextrins for liquid dosage forms” (priority 2004, dated 2012).

For data set [1] the following is noted: Study A; pH: 4.4, SBE-CD: 10%; compound of Formula Ia at 10 mgA/mL; content: ethanol 15%, meta-cresol 0.3%, propylene glycol 50%, thimerosal 0.01. As for the experimental part: Injection site toleration was measured by inspecting the patient for signs of reaction, including erythema (size); skin thickening (size), pain on palpation and edema. Table VI provides a detailed explanation of the scoring system: a score of 0 (no reaction) to 4 (severe reaction) was given for each characteristic and each injection site daily.
Compound of Formula Ia formulations were evaluated for injection site toleration (hereinafter “IST”).
Formulations were tested in groups of 4 dogs comprised of beagles and mongrels. […] Dogs were observed daily for evidence of reaction at the injection site and a score of 0-4 (see Table VI) was given for each of the following parameters: pain on injection, erythema, tissue thickening, pain on palpation and edema. Dogs were observed daily until day 5 (24 hours after the last dose).

Data set [2] has as its system Escherichia coli, Pseudomonas aeruginosa, Staphylococcus aureus, Candida albicans, Aspergillus niger. Description: Hybrid USP/Ph. Eur. antimicrobial effectiveness test (AET). Type of data set: cell-based. As to the method:
Preparation of Preserved Formulations. […] Antimicrobial preservatives with optimal activity at a pH outside the nominal formulation value (pH 4.4) were titrated to either 3.5 or 5.0 using 1 N HCl or 1 N NaOH. A stock solution of either 10% or 5% (weight/volume) SBE-CD containing 10 mgA/mL of the compound of Formula Ia citrate was prepared. Preservative was added to the respective formulation on a weight basis.
Antimicrobial Efficacy Testing. A hybrid USP […]/Ph. Eur. 2000 antimicrobial effectiveness test (AET) was performed, as follows: 20 mL of drug product was individually inoculated with 0.1-0.2 mL of bacterial or fungal culture, per USP/Ph. Eur. compendial requirements. The final concentration of organisms in the test sample was between 1×10^5 and 1×10^6 cfu/mL. At initial 6 hr, 24 hr, 7 day, 14 day, and 28 day time intervals, 1 mL of the inoculated product was transferred into 9 mL of a recovery diluent, that was validated to confirm neutralization of the antimicrobial preservative. One mL of the diluted sample was then transferred to a sterile petri dish and combined with 15-20 mL of an agar broth to culture the organisms. Plates were then incubated for 3 to 5 days, upon which colonies were counted. Initial organism contamination was then calculated based on dilution of the initial sample.
Generally, the USP test requirements are less stringent than Ph. Eur. requirements, which typically have an immediate bacteriocidal activity requirement. The Ph. Eur. requirements shown in Table III have either a “Criteria A” or “Criteria B” specification depending on the rate of microorganism reduction, with criteria A requiring an increased bacteriocidal rate. In order to meet the combined hybrid assay, the initial inoculum count of microorganisms needed to be reduced by the amounts listed in Table V.

“Also recorded” adds a separate entry of the source.

On to `Cc1cccc(O)c1` [meta-cresol], for which the IST entry in data set [1] is recorded as “Good”. Besides, the reducing the microorganisms entry in data set [2] is “effective”. Also, the “AET Results Ph. Eur. Criteria A” value in data set [2] (Study A, pH: 4.4, SBE-CD: 10%, compound of Formula Ia at 10 mgA/mL, content: ethanol 15%, meta-cresol 0.3%, propylene glycol 50%, thimerosal 0.01, cells without ✓ print organism (time point)) is given as “s. aur (6, 24 hr); also recorded: c. alb (7 d)”. The “Ph. Eur. criteria B” value in data set [2] (leads of Study B) is recorded as “met criteria B”. For the same molecule, the “Ph. Eur. criteria A for preservative efficacy” value in data set [2] (meta-cresol containing formulations) was “robustly meeting Ph. Eur. criteria A”. Besides, in data set [2] (when SBE-CD was present in the formulation), the activity against bacteria entry is recorded as “greatly diminished”.
